Data reported in paper PMC8759733 (Journal of Enzyme Inhibition and Medicinal Chemistry, 2021).
“Also recorded” adds a separate entry of the source.

Legend:
[1] = target: butyrylcholinesterase (BChE) (Equus caballus, UniProt P81908); experiment: Cholinesterase inhibition activity assay; assay type: biochemical, Equine serum; details: read-out: BChE Percentage of inhibition at 4 µg/mL
[2] = target: Acetylcholinesterase (AChE) (Electrophorus electricus, UniProt O42275); experiment: Cholinesterase inhibition activity assay; assay type: biochemical; details: for inhibition at 1 µg/mL: read-out: Percentage of AChE inhibition at 1 µg/mL
AChE = AChE (Electrophorus electricus, UniProt O42275); experiment: AChE enzyme kinetic study; assay type: biochemical; details: substrate ATCI 0.43-6.90 mM; Lineweaver-Burk plot
Sequence of AChE (O42275 24-633): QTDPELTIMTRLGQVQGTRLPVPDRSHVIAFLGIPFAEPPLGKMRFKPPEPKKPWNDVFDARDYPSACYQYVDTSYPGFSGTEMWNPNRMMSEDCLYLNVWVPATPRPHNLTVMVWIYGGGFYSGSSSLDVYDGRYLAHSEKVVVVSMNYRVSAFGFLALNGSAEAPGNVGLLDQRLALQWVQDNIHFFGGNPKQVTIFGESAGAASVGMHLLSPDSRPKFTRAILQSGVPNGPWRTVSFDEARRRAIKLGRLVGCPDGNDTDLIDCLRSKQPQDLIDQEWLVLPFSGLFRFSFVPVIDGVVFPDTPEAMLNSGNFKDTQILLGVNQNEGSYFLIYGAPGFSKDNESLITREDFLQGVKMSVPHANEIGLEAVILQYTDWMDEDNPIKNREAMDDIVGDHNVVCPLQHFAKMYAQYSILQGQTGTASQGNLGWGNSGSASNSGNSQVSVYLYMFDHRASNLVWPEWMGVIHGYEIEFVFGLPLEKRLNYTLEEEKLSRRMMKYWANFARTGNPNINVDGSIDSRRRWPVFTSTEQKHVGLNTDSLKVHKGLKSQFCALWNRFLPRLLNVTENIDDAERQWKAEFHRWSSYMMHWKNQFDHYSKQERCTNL

Sequence of butyrylcholinesterase (BChE) (P81908 whole entry): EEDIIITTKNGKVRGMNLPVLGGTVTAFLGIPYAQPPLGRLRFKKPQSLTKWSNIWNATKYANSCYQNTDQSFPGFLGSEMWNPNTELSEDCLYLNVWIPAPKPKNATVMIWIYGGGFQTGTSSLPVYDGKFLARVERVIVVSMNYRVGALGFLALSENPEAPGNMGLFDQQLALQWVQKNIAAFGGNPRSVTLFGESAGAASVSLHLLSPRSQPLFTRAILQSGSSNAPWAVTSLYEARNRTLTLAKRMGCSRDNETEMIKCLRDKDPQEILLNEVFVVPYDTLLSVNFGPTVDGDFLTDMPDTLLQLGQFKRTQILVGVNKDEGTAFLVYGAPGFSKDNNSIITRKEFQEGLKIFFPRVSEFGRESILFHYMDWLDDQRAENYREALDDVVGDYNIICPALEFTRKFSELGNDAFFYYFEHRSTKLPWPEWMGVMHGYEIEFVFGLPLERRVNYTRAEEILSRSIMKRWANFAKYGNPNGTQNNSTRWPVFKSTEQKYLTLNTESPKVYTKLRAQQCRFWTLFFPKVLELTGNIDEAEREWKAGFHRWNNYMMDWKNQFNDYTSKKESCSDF
Sequence of Acetylcholinesterase (AChE) (O42275 24-633): as the sequence (O42275 24-633) above

| SMILES | inhibition at 4 µg/mL [1] [%] | IC50 [2] [µM] | inhibition at 1 µg/mL [2] [%] | Mode of AChE inhibition (AChE) |
| --- | --- | --- | --- | --- |
| C=C(C)COc1ccc2c(=O)c3ccccc3oc2c1 [Compound 15, 3-((2-Methylallyl)oxy)-9H-xanthen-9-one] | 2.33 ± 0.3 | 1.6 ± 0.15 |  |  |
| CCC(CC)COc1ccc2c(=O)c3ccccc3oc2c1 [Compound 8, 3-(2-Ethylbutoxy)-9H-xanthen-9-one] | 12.6 ± 1.26 | 1.15 ± 0.19 |  |  |
| C[C@@H](CO)COc1ccc2c(=O)c3ccccc3oc2c1 [Compound 30, (S)-3-(3-hydroxy-2-methylpropoxy)-9H-xanthen-9-one] | 5.48 ± 0.31 | > 3.52 | < 50 |  |
| COC(=O)COc1ccc2c(=O)c3ccccc3oc2c1 [Compound 27, Methyl 2-((9-oxo-9H-xanthen-3-yl)oxy)acetate] | 7.69 ± 0.34 | 1.28 ± 0.13 |  |  |
| CC(C)=CCOc1ccc2c(=O)c3ccccc3oc2c1 [Compound 16, 3-((3-Methylbut-2-en-1-yl)oxy)-9H-xanthen-9-one] | 7.96 ± 1.22 | 1.86 ± 0.15 |  |  |
| CC(C)COc1ccc2c(=O)c3ccccc3oc2c1 [Compound 5, 3-Isobutoxy-9H-xanthen-9-one] | 9.78 ± 1.22 | 1.18 ± 0.11 |  |  |
| CC(C)Oc1ccc2c(=O)c3ccccc3oc2c1 [Compound 4, 3-Isopropoxy-9H-xanthen-9-one] | 20.7 ± 1.75 | 1.41 ± 0.13 |  |  |
| O=c1c2ccccc2oc2cc(OCc3ccccc3)ccc12 [Compound 21, 3-(Benzyloxy)-9H-xanthen-9-one] | 5.04 ± 0.7 | 0.99 ± 0.19 |  |  |
| CC(C)CCOc1ccc2c(=O)c3ccccc3oc2c1 [Compound 6, 3-(Isopentyloxy)-9H-xanthen-9-one] | 5.47 ± 0.61 | 1.84 ± 0.21 |  |  |
| O=c1c2ccccc2oc2cc(OCCCc3ccccc3)ccc12 [Compound 22, 3-(3-Phenylpropoxy)-9H-xanthen-9-one] | 15.5 ± 1.93 | 1.22 ± 0.12 |  |  |
| CCOC(=O)COc1ccc2c(=O)c3ccccc3oc2c1 [Compound 28, Ethyl 2-((9-oxo-9H-xanthen-3-yl)oxy)acetate] | 4.11 ± 0.35 | 0.88 ± 0.15 |  | mixed inhibition mechanism; also recorded: mixed-mode inhibition |
| C=CCCCCOc1ccc2c(=O)c3ccccc3oc2c1 [Compound 14, 3-(Hex-5-en-1-yloxy)-9H-xanthen-9-one] | 16.4 ± 1.34 | > 3.4 | < 50 |  |
| CC(C)CCCOc1ccc2c(=O)c3ccccc3oc2c1 [Compound 9, 3-((4-Methylpentyl)oxy)-9H-xanthen-9-one] | 11.8 ± 0.98 | 2.07 ± 0.06 |  |  |
| COCOCCOc1ccc2c(=O)c3ccccc3oc2c1 [Compound 25, 3-(2-(Methoxymethoxy)ethoxy)-9H-xanthen-9-one] | 10.3 ± 1.24 | 1.37 ± 0.12 |  |  |
| O=c1c2ccccc2oc2cc(OCC3CCC3)ccc12 [Compound 10, 3-(Cyclobutylmethoxy)-9H-xanthen-9-one] | 7.01 ± 1.16 | 1.61 ± 0.11 |  |  |
| C=CCCOc1ccc2c(=O)c3ccccc3oc2c1 [Compound 12, 3-(But-3-en-1-yloxy)-9H-xanthen-9-one] | 5.33 ± 0.17 | 2.09 ± 0.21 |  |  |
| COCCOCCOc1ccc2c(=O)c3ccccc3oc2c1 [Compound 26, 3-(2-(2-Methoxyethoxy)ethoxy)-9H-xanthen-9-one] | 17.8 ± 1.6 | 0.97 ± 0.06 |  |  |
| O=c1c2ccccc2oc2cc(OCCCCc3ccccc3)ccc12 [Compound 23, 3-(4-Phenylbutoxy)-9H-xanthen-9-one] | 9.19 ± 0.55 | 0.88 ± 0.04 |  | mixed inhibition mechanism; also recorded: mixed-mode inhibition |
| CCC#CCOc1ccc2c(=O)c3ccccc3oc2c1 [Compound 19, 3-(Pent-2-yn-1-yloxy)-9H-xanthen-9-one] | 5.24 ± 0.25 | 1.21 ± 0.05 |  |  |
| C[C@H](CO)COc1ccc2c(=O)c3ccccc3oc2c1 [Compound 29, (R)-3-(3-Hydroxy-2-methylpropoxy)-9H-xanthen-9-one] | 13.9 ± 0.96 | > 3.52 | < 50 |  |
| C=CCCCOc1ccc2c(=O)c3ccccc3oc2c1 [Compound 13, 3-(Pent-4-en-1-yloxy)-9H-xanthen-9-one] | 20.9 ± 3.07 | > 3.57 | < 50 |  |
| CCCCOc1ccc2c(=O)c3ccccc3oc2c1 [Compound 3, 3-Butoxy-9H-xanthen-9-one] | 17.6 ± 1.89 | 1.4 ± 0.14 |  |  |
| CCCOc1ccc2c(=O)c3ccccc3oc2c1 [Compound 2, 3-Propoxy-9H-xanthen-9-one] | 11.9 ± 1.74 | 1.86 ± 0.04 |  |  |
| CC[C@H](C)COc1ccc2c(=O)c3ccccc3oc2c1 [Compound 7, (S)-3-(2-Methylbutoxy)-9H-xanthen-9-one] | 24.8 ± 1.96 | 1.74 ± 0.2 |  |  |
| COCCCOc1ccc2c(=O)c3ccccc3oc2c1 [Compound 24, 3-(3-Methoxypropoxy)-9H-xanthen-9-one] | 11 ± 1.38 | > 3.52 | < 50 |  |
| CC(C)=CCCOc1ccc2c(=O)c3ccccc3oc2c1 [Compound 17, 3-((4-Methylpent-3-en-1-yl)oxy)-9H-xanthen-9-one] | 20.9 ± 3.03 | 1.06 ± 0.12 |  |  |
| O=c1c2ccccc2oc2cc(O)ccc12 [Compound 1, 3-hydroxyxanthone] | 6.55 ± 0.82 | 2.39 ± 0.11 |  |  |
| O=c1c2ccccc2oc2cc(OCCC3CCCCC3)ccc12 [Compound 11, 3-(2-Cyclohexylethoxy)-9H-xanthen-9-one] | 24.3 ± 2.29 | 1.27 ± 0.13 |  |  |
| C#CC(C)Oc1ccc2c(=O)c3ccccc3oc2c1 (centres unmarked) [Compound 20, 3-(But-3-yn-2-yloxy)-9H-xanthen-9-one] | 5 ± 0.74 | 2.24 ± 0.17 |  |  |
| CC#CCOc1ccc2c(=O)c3ccccc3oc2c1 [Compound 18, 3-(But-2-yn-1-yloxy)-9H-xanthen-9-one] | 4.53 ± 0.88 | > 3.79 | < 50 |  |
